The nature of test [1]: Counterscreen for IDE inhibitors: Luminescence-based cell-based high throughput dose response assay to identify compounds that are cytotoxic to HEK cells. [Related pubchem assays: 434962 (Primary screen (IDE inhibitors in singlicate)), 449730 (Counterscreen (Cytotoxicity in triplicate)), 435028 (Confirmation (IDE inhibitors in triplicate)) …. The test is classed as functional. The following applies: HEK293. For orientation: The purpose of a counterscreen is to sort out artefacts and off-target activity.

The next test has as its target Large T antigen (Simian virus 40, UniProt P03070). The class given is functional, Betapolyomavirus macacae.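 Also: Confirmatory-stage PubChem screen for compounds that inhibit SV40 T antigen.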
In another test the target is T1, Insulin-degrading enzyme (Homo sapiens, UniProt P14735).
T1 sequence (P14735 whole entry): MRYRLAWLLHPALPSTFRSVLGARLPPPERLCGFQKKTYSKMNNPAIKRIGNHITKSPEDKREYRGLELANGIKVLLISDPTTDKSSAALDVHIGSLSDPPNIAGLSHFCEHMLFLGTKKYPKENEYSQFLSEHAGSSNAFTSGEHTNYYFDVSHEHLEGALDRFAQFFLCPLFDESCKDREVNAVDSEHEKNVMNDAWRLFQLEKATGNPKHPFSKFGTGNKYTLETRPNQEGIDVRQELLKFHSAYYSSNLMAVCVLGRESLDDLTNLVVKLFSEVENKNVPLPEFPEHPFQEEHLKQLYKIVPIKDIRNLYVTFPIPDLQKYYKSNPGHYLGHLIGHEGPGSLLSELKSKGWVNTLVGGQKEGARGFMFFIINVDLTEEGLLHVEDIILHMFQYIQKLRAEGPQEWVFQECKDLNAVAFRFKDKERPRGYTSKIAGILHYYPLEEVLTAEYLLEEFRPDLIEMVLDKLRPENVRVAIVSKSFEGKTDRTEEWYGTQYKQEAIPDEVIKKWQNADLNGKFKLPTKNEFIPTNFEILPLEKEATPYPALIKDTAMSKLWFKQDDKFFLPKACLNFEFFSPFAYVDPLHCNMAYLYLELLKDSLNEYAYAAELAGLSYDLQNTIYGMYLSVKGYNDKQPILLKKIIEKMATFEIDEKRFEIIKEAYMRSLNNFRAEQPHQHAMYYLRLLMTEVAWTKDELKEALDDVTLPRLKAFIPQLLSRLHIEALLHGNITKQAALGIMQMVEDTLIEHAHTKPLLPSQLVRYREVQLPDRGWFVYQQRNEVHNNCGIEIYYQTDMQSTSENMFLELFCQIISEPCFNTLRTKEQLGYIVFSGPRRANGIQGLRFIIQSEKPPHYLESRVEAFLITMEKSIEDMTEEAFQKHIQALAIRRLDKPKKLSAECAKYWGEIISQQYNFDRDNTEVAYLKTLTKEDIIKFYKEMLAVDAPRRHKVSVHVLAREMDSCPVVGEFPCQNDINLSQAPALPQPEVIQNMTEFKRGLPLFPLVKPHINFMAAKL
Nature of the test: Dose Response: Fluorescence polarization-based cell-based high throughput dose response assay for inhibitors of insulin-degrading enzyme (IDE). [Related pubchem assays: 434962 (Primary screen (IDE inhibitors in singlicate)), 449730 (Counterscreen (Cytotoxicity in triplicate)), 435028 (Confirmation (IDE inhibitors in triplicate)), 434984 (Summary …. The class given is functional. In general terms: Polarisation of emitted light reports the rotation of a fluorescent probe.

Test [2] has as its target T2, Mannose-6-phosphate isomerase (Homo sapiens, UniProt P34949).
T2 sequence (P34949 whole entry): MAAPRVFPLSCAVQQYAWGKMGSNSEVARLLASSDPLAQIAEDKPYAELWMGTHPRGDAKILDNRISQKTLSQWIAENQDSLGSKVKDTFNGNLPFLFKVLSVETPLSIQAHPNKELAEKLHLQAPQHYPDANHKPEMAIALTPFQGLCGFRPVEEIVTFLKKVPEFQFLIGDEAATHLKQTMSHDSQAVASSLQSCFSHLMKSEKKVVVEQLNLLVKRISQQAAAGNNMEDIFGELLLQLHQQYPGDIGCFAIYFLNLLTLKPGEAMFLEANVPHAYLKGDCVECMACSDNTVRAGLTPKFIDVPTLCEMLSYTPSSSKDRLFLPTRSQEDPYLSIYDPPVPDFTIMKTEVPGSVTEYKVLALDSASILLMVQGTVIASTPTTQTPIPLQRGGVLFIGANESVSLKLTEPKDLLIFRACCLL
Nature of the test: phosphomannose isomerase inhibition – biochemical, fluorescence intensity, confirmation (AID 1535).

Test [3] addresses DNA dC->dU-editing enzyme APOBEC-3A (Homo sapiens, UniProt P31941). Nature of the test: A3A deaminase inhibition for selectivity – biochemical, dose response (AID 504722). The class given is functional.
Test [4] addresses Glucose-6-phosphate 1-dehydrogenase (Homo sapiens, UniProt P11413). Description: inhibition of Homo sapiens G6PD, dose series – biochemical, fluorescence, selectivity assay for P. falciparum G6PD inhibitor project, dose response (AID 504792). The test is classed as functional.
In the next test the target is T3, Phosphomannomutase 2 (Homo sapiens, UniProt O15305).
T3 sequence (O15305 whole entry): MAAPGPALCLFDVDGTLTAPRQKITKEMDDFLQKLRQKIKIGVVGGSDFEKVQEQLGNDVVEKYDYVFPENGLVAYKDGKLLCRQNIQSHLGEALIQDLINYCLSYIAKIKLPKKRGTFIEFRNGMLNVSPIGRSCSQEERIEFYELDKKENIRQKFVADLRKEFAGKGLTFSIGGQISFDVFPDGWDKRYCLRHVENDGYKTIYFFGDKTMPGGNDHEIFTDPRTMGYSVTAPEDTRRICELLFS
Description: Counter screen SAR assay for PMM2 inhibitors via a fluorescence intensity assay. [Related pubchem assays (depositor defined):AID1545, AID1574].

For test [5], the target named is Phosphoethanolamine/phosphocholine phosphatase (Homo sapiens, UniProt Q8TCT1). Description: SAR assay for compounds that inhibit PHOSPHO1. [Related pubchem assays (depositor defined):AID1545, AID1565, AID1574].
In test [6] the target is DNA dC->dU-editing enzyme APOBEC-3G (Homo sapiens, UniProt Q9HC16). Nature of the test: Dose Response confirmation of small molecule APOBEC3G DNA Deaminase Inhibitors via a fluorescence-based single-stranded DNA deaminase assay. [Related pubchem assays (depositor defined):AID493012, AID493028]. The test is classed as functional.
The target of test [7] is T4, Alkaline phosphatase, tissue-nonspecific isozyme (Homo sapiens, UniProt P05186).
T4 sequence (P05186 whole entry): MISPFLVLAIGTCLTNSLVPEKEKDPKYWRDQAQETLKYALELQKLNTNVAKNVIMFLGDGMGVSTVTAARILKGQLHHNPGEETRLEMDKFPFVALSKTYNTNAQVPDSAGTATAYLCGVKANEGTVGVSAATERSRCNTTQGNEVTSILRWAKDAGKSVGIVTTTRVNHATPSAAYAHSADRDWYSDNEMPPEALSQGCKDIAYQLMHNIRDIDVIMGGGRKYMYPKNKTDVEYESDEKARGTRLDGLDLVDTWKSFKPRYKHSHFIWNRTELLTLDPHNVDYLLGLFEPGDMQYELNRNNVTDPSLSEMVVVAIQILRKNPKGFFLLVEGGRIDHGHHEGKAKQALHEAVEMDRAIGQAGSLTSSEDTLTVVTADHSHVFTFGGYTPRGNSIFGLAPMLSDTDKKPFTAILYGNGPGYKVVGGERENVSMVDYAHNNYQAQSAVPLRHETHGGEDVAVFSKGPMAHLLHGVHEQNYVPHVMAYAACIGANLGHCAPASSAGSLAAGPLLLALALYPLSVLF
Description: potency against alkaline phosphatase TNAP – biochemical, luminescent, dose response, SAR follow-up (AID 1056).

Test [8] addresses FAD-linked sulfhydryl oxidase ALR (Homo sapiens, UniProt P55789). Nature of the test: ALR-catalysed DTT oxidation blockers – biochemical, H2O2 detection, luminescence, cherry-pick, dose response (AID 493248).
A further test deals with Vero. Description: viability of Vero cells under compound – cytotoxicity control for flavivirus capping enzyme inhibitors (AID 588742). The test is classed as functional. Conditions: Chlorocebus sabaeus.
The target in the next test is Genome polyprotein (dengue virus type 2, UniProt P29990). Description: flavivirus cap methylation enzyme inhibition – biochemical, confirmation dose response, primary screen (AID 588689). The test is classed as functional.
Test [9] deals with T5, Orexin receptor type 2 (Homo sapiens, UniProt O43614).
T5 sequence (O43614 whole entry): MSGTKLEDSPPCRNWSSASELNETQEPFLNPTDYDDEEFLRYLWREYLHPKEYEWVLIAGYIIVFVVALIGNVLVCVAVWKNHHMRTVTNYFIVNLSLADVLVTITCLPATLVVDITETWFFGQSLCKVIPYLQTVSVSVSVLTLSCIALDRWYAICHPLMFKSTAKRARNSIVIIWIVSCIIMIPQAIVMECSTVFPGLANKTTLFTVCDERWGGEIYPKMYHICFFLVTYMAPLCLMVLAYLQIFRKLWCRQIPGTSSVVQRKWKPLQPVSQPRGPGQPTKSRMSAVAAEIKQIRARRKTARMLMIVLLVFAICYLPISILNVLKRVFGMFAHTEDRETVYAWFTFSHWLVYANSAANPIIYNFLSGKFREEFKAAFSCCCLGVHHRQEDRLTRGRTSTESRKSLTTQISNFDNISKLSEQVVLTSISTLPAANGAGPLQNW
Description: Counterscreen assay for antagonists of the orexin 1 receptor (OX1R; HCRTR1): Fluorescence-based cell-based dose response assay for antagonists of the orexin 2 receptor (OX2R; HCRTR2), run by assay provider. The class given is functional.

Test [10] addresses T5, Orexin receptor type 2. Description: Counterscreen assay for antagonists of the orexin 1 receptor (OX1R; HCRTR1): Homogeneous Time Resolved Fluorescence (HTRF)-based cell-based dose response assay for antagonists of the orexin 2 receptor (OX2R; HCRTR2), run by assay provider. The class given is functional.
Test [11] addresses Endoplasmic reticulum aminopeptidase 1 (Homo sapiens, UniProt Q9NZ08). Nature of the test: inhibition of human ERAP1 enzyme activity – biochemical, cherry-pick, set 2, plate reader, dose response (AID 743314).
Test [12] is described as follows: antiviral protection against BTV-induced cell death – arbovirus, BSR cells, confirmation (AID 1250).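 Also: protection from viral cytopathic effect measured as cell viability by ATP luminescence.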 The test is classed as functional.
Another test has as its system HEK293. Description: EBV LMP1 TES2 canonical NF-kB signalling blockers – cell-based, HEK293, luciferase, cherry-pick, dose response (AID 588343). Conditions: Homo sapiens. The test is classed as functional.
The next test has as its target Interleukin-8 (Homo sapiens, UniProt P10145). Nature of the test: Dose Response confirmation of uHTS small molecule hits for cystic fibrosis induced NFkb Inhibitors in a PAF-induced IL8 counterscreen. The test is classed as functional. Conditions: read-out: IC50_Mean.
Test [13] in a line: blockers of HIV-1 envelope-mediated cell-cell fusion – cherry-pick, dose response (AID 652057). The class given is functional, cell-based.
The nature of test [14]: viability loss in CEM21 cells – cell-based, CellTiter-Glo luminescence, cherry-picked, cytotoxicity control for viral fusion inhibitor project, dose response (AID 652042).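 Also: potency for signal decrease meaning cytotoxicity.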 The class given is functional. (In ATP-based viability assays light output follows the ATP content of the culture.)
Test [15] is described as follows: blockers of HIV-1 ZM109 envelope-driven cell-cell fusion – HeLa effector, CEM target cells, luciferase, cherry-pick, dose response (AID 652058).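 Also: luciferase signal from HIV-1 Env mediated cell-cell fusion of effector and target cells.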 The test is classed as functional, cell-based.
Test [16] can be described thus: off-target signal loss in HeLa-CEM21 co-culture – HeLa F-luc CTL cells, cherry-picked, counter-screen for HIV-1 Env fusion inhibitor project, dose response (AID 652040).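 Also: potency for signal decrease marking cytotoxic or nonspecific inhibition.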 The class given is functional, cell-based.
A short description of test [17]: HIV-1 AD8 envelope cell-cell fusion blockers – cherry-pick, dose response (AID 652062).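 Also: luciferase signal from cell-cell fusion driven by HIV-1 clade B AD8 Env; potency is for inhibitors of fusion seen as a drop in luminescence.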 The test is classed as functional, cell-based.
The target in test [18] is DNA (cytosine-5)-methyltransferase 1 (Homo sapiens, UniProt P26358). Nature of the test: inhibition of DNA methylation by DNMT1 – biochemical, fluorescent molecular beacon, confirmation (AID 602386). The test is classed as functional.
The target in another test is Caspase-6 (Homo sapiens, UniProt P55212). Nature of the test: inhibition of CASP6 peptide cleavage – biochemical, VEID-R110 fluorescence, cherry-pick, dose response (AID 720632).
In test [19] the target is Aryl hydrocarbon receptor (Homo sapiens, UniProt P35869). Conditions: Potency.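 Also: confirmatory quantitative high-throughput screen measuring activation of the AhR signaling pathway.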

The values below come from ChEMBL document CHEMBL1201862, “PubChem BioAssay data set” (2004).

Structures are written as SMILES. Calls of active or inactive are those of the source.

DNA (cytosine-5)-methyltransferase 1, sequence (P26358 whole entry): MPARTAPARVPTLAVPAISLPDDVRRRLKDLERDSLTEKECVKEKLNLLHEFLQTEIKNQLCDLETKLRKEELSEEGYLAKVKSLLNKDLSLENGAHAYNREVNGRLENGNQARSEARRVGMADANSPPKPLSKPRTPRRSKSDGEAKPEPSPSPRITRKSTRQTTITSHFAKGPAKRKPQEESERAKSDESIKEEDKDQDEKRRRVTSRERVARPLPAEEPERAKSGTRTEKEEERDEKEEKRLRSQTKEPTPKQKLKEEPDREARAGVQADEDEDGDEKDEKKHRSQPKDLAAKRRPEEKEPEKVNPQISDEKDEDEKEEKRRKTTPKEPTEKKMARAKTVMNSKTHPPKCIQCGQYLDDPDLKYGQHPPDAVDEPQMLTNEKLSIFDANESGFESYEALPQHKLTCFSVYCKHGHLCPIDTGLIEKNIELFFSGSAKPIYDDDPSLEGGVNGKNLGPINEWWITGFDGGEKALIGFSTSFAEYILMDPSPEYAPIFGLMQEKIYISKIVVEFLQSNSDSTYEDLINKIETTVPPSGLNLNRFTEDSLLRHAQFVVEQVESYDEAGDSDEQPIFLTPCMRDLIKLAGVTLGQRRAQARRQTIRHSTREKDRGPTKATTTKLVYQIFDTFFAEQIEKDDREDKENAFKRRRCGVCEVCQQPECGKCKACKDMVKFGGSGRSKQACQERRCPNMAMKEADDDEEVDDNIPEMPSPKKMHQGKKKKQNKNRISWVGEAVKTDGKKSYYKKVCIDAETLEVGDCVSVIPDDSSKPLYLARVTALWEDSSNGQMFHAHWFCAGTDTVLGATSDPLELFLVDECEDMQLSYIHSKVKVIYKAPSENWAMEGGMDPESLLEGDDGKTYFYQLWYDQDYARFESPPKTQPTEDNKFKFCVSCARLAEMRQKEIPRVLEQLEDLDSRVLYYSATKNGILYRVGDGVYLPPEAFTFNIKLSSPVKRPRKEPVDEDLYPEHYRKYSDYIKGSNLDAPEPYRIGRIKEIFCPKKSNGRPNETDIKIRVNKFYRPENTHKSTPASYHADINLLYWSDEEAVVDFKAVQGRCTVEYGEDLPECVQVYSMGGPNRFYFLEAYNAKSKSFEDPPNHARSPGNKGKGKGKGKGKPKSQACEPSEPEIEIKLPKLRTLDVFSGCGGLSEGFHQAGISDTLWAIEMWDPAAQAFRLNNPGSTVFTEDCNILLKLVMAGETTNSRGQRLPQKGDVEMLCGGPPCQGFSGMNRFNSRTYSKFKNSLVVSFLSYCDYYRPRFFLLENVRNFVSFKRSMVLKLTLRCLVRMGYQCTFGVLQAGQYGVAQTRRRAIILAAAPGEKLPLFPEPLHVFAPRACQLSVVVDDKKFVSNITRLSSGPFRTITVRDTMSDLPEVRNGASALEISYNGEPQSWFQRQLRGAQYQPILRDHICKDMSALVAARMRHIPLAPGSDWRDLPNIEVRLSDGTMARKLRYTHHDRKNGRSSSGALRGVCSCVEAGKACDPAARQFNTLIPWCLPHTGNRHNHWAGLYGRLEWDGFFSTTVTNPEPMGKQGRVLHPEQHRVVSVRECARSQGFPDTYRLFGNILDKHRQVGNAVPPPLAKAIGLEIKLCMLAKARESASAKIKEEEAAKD
Large T antigen, sequence (P03070 whole entry): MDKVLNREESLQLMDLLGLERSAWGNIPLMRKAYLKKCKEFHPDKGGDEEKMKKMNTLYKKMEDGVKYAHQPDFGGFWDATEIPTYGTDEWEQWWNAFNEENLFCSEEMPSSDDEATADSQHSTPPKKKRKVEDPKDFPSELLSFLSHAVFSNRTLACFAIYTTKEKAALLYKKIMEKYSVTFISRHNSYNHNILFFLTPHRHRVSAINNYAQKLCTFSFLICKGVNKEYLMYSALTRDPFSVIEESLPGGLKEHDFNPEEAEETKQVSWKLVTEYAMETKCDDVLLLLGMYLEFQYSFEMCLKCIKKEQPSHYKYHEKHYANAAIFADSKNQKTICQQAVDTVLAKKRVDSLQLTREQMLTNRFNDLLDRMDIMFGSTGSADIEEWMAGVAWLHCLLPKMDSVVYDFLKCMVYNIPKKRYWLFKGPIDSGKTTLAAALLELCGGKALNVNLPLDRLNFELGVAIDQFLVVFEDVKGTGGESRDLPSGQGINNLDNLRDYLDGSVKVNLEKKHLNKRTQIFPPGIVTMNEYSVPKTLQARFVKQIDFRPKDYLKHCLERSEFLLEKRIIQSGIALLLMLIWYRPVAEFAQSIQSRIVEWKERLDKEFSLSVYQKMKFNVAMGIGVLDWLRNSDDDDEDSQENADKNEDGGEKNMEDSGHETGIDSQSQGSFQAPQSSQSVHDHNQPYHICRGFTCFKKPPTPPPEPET
Genome polyprotein, sequence (P29990 2492-3391 limits assumed): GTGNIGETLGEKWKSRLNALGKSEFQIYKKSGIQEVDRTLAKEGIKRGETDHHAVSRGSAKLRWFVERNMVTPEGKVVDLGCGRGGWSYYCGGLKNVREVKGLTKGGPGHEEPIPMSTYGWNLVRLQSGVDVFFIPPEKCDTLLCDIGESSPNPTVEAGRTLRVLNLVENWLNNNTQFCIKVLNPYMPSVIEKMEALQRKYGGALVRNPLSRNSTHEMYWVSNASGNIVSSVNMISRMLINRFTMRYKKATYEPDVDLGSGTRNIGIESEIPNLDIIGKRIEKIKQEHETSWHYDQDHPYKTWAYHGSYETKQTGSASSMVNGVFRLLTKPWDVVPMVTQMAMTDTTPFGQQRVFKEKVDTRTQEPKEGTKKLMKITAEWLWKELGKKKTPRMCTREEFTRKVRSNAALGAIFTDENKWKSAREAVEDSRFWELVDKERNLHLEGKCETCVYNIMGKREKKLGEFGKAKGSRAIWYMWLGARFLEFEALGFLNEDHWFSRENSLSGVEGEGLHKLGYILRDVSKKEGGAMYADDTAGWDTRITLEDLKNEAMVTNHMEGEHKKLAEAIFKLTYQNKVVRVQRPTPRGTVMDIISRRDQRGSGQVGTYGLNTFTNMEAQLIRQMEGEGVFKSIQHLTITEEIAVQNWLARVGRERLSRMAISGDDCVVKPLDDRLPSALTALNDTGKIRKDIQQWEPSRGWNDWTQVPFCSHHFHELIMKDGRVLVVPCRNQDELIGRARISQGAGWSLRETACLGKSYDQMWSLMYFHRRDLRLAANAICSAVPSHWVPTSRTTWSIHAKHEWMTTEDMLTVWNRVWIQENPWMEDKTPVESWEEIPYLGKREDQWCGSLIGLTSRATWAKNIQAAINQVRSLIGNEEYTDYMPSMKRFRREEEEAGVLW
Endoplasmic reticulum aminopeptidase 1, sequence (Q9NZ08 whole entry): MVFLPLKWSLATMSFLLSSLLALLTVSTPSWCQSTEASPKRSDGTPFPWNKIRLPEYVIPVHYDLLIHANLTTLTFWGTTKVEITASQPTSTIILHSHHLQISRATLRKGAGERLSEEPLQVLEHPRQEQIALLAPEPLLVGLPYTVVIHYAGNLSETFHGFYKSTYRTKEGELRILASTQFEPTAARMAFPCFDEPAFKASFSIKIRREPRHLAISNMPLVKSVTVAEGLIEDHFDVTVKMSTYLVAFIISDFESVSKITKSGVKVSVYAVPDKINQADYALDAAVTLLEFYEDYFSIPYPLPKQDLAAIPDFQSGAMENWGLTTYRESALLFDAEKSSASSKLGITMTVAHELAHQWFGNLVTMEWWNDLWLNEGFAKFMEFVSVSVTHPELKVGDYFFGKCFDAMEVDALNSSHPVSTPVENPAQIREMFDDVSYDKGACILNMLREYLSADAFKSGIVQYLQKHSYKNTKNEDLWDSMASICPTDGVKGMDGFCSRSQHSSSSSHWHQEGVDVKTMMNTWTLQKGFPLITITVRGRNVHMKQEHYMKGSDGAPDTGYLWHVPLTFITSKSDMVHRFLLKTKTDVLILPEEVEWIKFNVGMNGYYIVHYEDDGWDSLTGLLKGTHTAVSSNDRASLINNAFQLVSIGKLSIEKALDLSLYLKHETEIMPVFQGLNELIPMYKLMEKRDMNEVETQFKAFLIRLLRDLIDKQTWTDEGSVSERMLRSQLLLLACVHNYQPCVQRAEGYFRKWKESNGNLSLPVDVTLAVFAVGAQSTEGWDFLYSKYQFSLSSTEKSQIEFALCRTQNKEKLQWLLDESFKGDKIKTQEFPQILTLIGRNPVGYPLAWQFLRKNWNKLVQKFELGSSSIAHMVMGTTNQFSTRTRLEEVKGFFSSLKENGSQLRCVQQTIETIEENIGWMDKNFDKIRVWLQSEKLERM
Caspase-6, sequence (P55212 24-179 limits assumed): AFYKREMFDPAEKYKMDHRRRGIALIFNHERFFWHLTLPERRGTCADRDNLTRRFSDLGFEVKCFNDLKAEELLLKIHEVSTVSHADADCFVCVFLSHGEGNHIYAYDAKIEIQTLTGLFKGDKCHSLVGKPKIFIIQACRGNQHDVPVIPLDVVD
Caspase-6, sequence (P55212 194-293 limits assumed): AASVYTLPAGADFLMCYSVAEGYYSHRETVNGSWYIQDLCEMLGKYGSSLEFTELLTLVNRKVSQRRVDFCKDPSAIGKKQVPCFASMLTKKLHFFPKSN
DNA dC->dU-editing enzyme APOBEC-3A, sequence (P31941 whole entry): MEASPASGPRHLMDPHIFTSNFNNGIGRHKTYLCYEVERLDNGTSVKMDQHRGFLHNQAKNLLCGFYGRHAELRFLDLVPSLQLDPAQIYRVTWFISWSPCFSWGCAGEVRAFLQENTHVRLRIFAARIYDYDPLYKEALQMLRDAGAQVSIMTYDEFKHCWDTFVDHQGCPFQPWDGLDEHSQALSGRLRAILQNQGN
Phosphoethanolamine/phosphocholine phosphatase, sequence (Q8TCT1 whole entry): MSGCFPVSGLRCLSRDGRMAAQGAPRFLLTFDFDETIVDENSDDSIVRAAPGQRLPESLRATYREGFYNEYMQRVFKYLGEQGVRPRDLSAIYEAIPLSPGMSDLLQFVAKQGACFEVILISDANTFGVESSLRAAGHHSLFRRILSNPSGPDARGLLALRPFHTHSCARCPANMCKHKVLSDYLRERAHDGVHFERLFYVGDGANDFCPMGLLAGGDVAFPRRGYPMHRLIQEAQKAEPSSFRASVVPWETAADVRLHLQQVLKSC
Interleukin-8, sequence (P10145 whole entry, the tested form may be a part): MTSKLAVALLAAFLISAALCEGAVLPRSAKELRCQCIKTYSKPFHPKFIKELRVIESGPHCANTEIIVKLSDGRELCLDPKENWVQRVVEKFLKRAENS

Take `O=C(O)c1ccccc1NS(=O)(=O)c1cccc(-n2sc3ccccc3c2=O)c1`: the IC50 was 34.8 µM (not active) in test [1]; 13.2 µM (active) at Large T antigen; 2.1 µM (active) on Insulin-degrading enzyme; 0.707 µM (active) in test [2]; > 100 µM (inactive) in [3]; 17.6 µM (active) in test [4]. Moreover, the IC50 at Phosphomannomutase 2 was 5.15 µM (active); in test [5], 0.808 µM (active); in test [6], 9.14 µM (active); in [7], > 100 µM (inactive); at Genome polyprotein, 46.4 µM (active); at Orexin receptor type 2 [9], 6.8 µM (active). Further, at Orexin receptor type 2 [10], the IC50 is 3.45 µM (active). Further, the results for the AC50 in test [8] and in test [11] were 0.243 µM (active) and 0.73 µM (active), respectively. In the test on Vero, the CC50 (in general, the concentration at which the toxic effect on the cells reaches its halfway point) is > 40 µM (active).

As for `Clc1ccccc1C1=Nn2c(nnc2-c2ccncc2)SC1`, the figures for the IC50 (in [12]; on Interleukin-8) were 22.6 µM (active) and 8.72 µM (active), respectively. For the same compound, the AC50 (commonly the concentration giving half of the maximal activity seen) is 14.2 µM (active) with HEK293; 3.15 µM (active) in test [13]; 63.6 µM (active) in test [14]; 1.45 µM (active) in test [15]; 1.96 µM (active) in [16]; 1.83 µM (active) in test [17].

On to `O=C(O)CCc1ccc(S(=O)(=O)Nc2cc(C(F)(F)F)ccc2N2CCCC2)cc1`, for which the IC50 in test [18] is 11.7 µM (active). In addition, the AC50 at Caspase-6 was 38.4 µM (active).

For `CC(C)N1C(=O)c2ccccc2NS1(=O)=O` [BENTAZON], in [19], the AC50 was 79.4 µM (inconclusive).
